Molecules are shown by their SMILES. Where “and” joins values, the source holds several entries; their conditions need not be identical. Identical values can stand only once.

In one data set the target is lysine gingipain (Kgp) (Porphyromonas gingivalis (strain ATCC 33277 / DSM 20709 / CIP 103683 / JCM 12257 / NCTC 11834 / 2561), UniProt B2RLK2). Description: Inhibition of lysine gingipain, fluorogenic assay (Z-His-Glu-Lys-MCA). The format is biochemical.
Details: not given
The method, then: The specific assay conditions were as follows. Buffer: pH=7.5, 100 mM Tris-HCl, 75 mM NaCl, 2.5 mM CaCl2, 10 mM cysteine, 1% DMSO after all additions. Protein: 0.1 nM Kgp, isolated from culture of Porphyromonas gingivalis, as described by Pike et al. (J. Biol. Chem. 1994, 269(1), 406), and Potempa and Nguyen (Current Protocols in Protein Science. 2007, 21.20.1-21.20.27). Fluorogenic substrate: 10 μM Z-His-Glu-Lys-MCA. Time=90 minutes. Temperature=37° C.
Further assays to measure the inhibitory activity of compounds of the present invention against Kgp and cathepsins B, H, K, L, and S were conducted as described in Example 66. The capacities of the compounds to inhibit the activity of cathepsins F, V, and Z were also measured.
With `NCCCC[C@H](NC(=O)C1CCCC1)C(=O)COc1c(F)c(F)cc(F)c1F` (stereo in doubt) [Compound 73, N-[7-amino-2-oxo-1-(2,3,5,6-tetrafluorophenoxy)heptan-3-yl]cyclopentanecarboxamide, reference compound], the “Kgp IC50 values (in words)” value was “sub-nanomolar”.

Still in this data set, the particulars now being: Table 3; read-out: IC50 (nM) Kgp.
As usually defined, the IC50 is the concentration needed to halve the response being measured. Take `NCCCC[C@H](NC(=O)C1CCCC1)C(=O)COc1c(F)c(F)cc(F)c1F` (stereo in doubt) [Compound 73, N-[7-amino-2-oxo-1-(2,3,5,6-tetrafluorophenoxy)heptan-3-yl]cyclopentanecarboxamide, reference compound]: the IC50 is at most 0.05 nM.
Regarding `NCCCCC(NC(=O)C1CCCC1)C(=O)COc1c(F)cccc1F` (stereo not drawn) [Compound 2a], the IC50 was ≤ 0.05 nM and 0.11 nM.
For `NCCCCC(NC(=O)C1CCCC1)C(=O)COc1ccccc1F` (stereo not drawn) [Compound 3a], the IC50 worked out at 0.64 nM.
Still for that read-out and setting: to `NCCCCC(NC(=O)C1CCCC1)C(=O)COc1cc(F)cc(F)c1F` (stereo not drawn) [Compound 4a] belongs 0.07 nM.
The same measure, in the same setting: with `NCCCCC(NC(=O)C1CCCC1)C(=O)COc1cccc(F)c1F` (stereo not drawn) [Compound 5a] the figure was 0.15 nM; with `NCCCCC(NC(=O)C1CCCC1)C(=O)COc1cc(F)ccc1F` (stereo not drawn) [Compound 6a], 0.19 nM; with `NCCCCC(NC(=O)C1CCCC1)C(=O)COc1cccc(F)c1` (stereo not drawn) [Compound 7a], 1.3 nM.
Still for that read-out and setting: with `NCCCCC(NC(=O)C1CCCC1)C(=O)COc1cc(F)cc(F)c1` (stereo not drawn) [Compound 8a] the figure was 0.34 nM; with `[N-]=[N+]=Nc1cccc(C(=O)NC(CCCCN)C(=O)COc2c(F)cccc2F)c1` (stereo not drawn) [Compound 12a], 0.08 nM; with `CSCC(=O)C(CCCCN)NC(=O)C1CCCC1` (stereo not drawn) [Compound 16a], above 100 nM.
Turning to `NCCCCC(NC(=O)C1CCCC1)C(=O)COCC(F)(F)F` (stereo not drawn) [Compound 17a], the IC50 is above 100 nM.
Turning to `NCCCCC(NC(=O)C1CCCC1)C(=O)COC(C(F)(F)F)C(F)(F)F` (stereo not drawn) [Compound 18a], the IC50 is 0.5 nM.
On the same count and under the same terms, to `CN(C)CC(=O)C(CCCCN)NC(=O)C1CCCC1` (stereo not drawn) [Compound 19a] belongs above 100 nM; to `CS(=O)(=O)CC(=O)C(CCCCN)NC(=O)C1CCCC1` (stereo not drawn) [Compound 20a], above 100 nM.
On the same count and under the same terms, with `NCCCC[C@@H](NC(=O)C1CCCC1)C(=O)COc1c(F)c(F)cc(F)c1F` [Compound 74, reference compound] the figure was at most 0.05 nM.

The data set is the same for the next values; noted with them: Table 4; read-out: IC50 (nM) Kgp.
For the compound `NCCCC[C@H](NC(=O)C1CCCC1)C(=O)COc1c(F)c(F)cc(F)c1F` (stereo in doubt) [Compound 73, N-[7-amino-2-oxo-1-(2,3,5,6-tetrafluorophenoxy)heptan-3-yl]cyclopentanecarboxamide, reference compound], the IC50 is below 0.05 nM.
Regarding `NCCCCC(NC(=O)C1CCCC1)C(=O)COc1c(F)cccc1F` (stereo not drawn) [Compound 2a], the IC50 is below 0.05 nM.
On the same count and under the same terms, to `NCCCCC(NC(=O)C1CCCC1)C(=O)COc1cccc(F)c1` (stereo not drawn) [Compound 7a] belongs 1.3 nM; to `NCCCCC(NC(=O)C1CCCC1)C(=O)COC(C(F)(F)F)C(F)(F)F` (stereo not drawn) [Compound 18a], 0.5 nM.
On the same count and under the same terms, with `NCCCCC(NC(=O)c1cccc(F)c1)C(=O)COc1c(F)cccc1F` (stereo not drawn) [Compound 26a] the figure was 0.09 nM; with `NCCCCC(NC(=O)c1cccc(OCCF)c1)C(=O)COc1c(F)cccc1F` (stereo not drawn) [Compound 27a], 0.27 nM; with `NCCCCC(NC(=O)c1cccc(F)n1)C(=O)COc1c(F)cccc1F` (stereo not drawn) [Compound 28a], 0.34 nM.
On the same count and under the same terms, to `NCCCCC(NC(=O)c1ccc(F)nc1)C(=O)COc1c(F)cccc1F` (stereo not drawn) [Compound 29a] belongs 0.31 nM.
Turning to `NCCCCC(NC(=O)c1cccc(OCCCF)c1)C(=O)COc1c(F)cccc1F` (stereo not drawn) [Compound 30a], the IC50 stood at 0.21 nM.
Still for that read-out and setting: to `NCCCCC(NC(=O)c1ccnc(F)c1)C(=O)COc1c(F)cccc1F` (stereo not drawn) [Compound 31a] belongs 0.15 nM; to `NCCCCC(NC(=O)c1cccnc1F)C(=O)COc1c(F)cccc1F` (stereo not drawn) [Compound 32a], 0.08 nM.
For the compound `[N-]=[N+]=Nc1cccc(C(=O)NC(CCCCN)C(=O)COc2c(F)cccc2F)c1` (stereo not drawn) [Compound 33a], the IC50 is 0.08 nM.
Same read-out and setting: to `NCCCCC(NC(=O)c1cccnc1Br)C(=O)COc1c(F)cccc1F` (stereo not drawn) [Compound 34a] belongs 0.13 nM.
Same read-out and setting: to `NCCCCC(NC(=O)c1ccc(F)cc1)C(=O)COc1c(F)cccc1F` (stereo not drawn) [Compound 35a] belongs 0.1 nM; to `NCCCCC(NC(=O)c1ccccc1)C(=O)C(F)F` (stereo not drawn) [Compound 37a], above 100 nM.
Still for that read-out and setting: to `NCCCCC(NC(=O)C1CCCC1)C(=O)Cn1cnccc1=O` (stereo not drawn) [Compound 39a] belongs above 100 nM.
Consider `NCCCCC(NC(=O)C1CCCC1)C(=O)Cn1ccc(=O)nc1` (stereo not drawn) [Compound 40a], for which the IC50 was 30.3 nM.
Same read-out and setting: with `NCCCCC(NC(=O)C1CCCC1)C(=O)Cn1cncc(F)c1=O` (stereo not drawn) [Compound 41a] the figure was above 100 nM.
On the same count and under the same terms, with `NCCCCC(NC(=O)c1cccnc1)C(=O)COc1c(F)ccc(F)c1F` (stereo not drawn) [Compound 42a] the figure was 0.06 nM; with `NCCCCC(NC(=O)c1cccnc1)C(=O)COc1c(F)cccc1F` (stereo not drawn) [Compound 43a], 0.09 nM; with `CN(C)c1ccc(/N=N/c2ccc(C(=O)NCc3cc(F)c(OCC(=O)C(CCCCN)NC(=O)c4cccc(N=[N+]=[N-])c4)c(F)c3)cc2)cc1` (stereo not drawn) [Compound 44a], 3.04 nM.
The same measure, in the same setting: to `COC(C)(C)C(=O)NC(CCCCN)C(=O)COc1c(F)ccc(F)c1F` (stereo not drawn) [Compound 47a] belongs 0.06 nM.
For `COC(C)(C)C(=O)NC(CCCCN)C(=O)COc1c(F)cccc1F` (stereo not drawn) [Compound 48a], the IC50 was found to be 0.07 nM.
Same read-out and setting: with `NCCCCC(NC(=O)C1CCCC1)C(=O)COc1ccon1` (stereo not drawn) [Compound 49a] the figure was 0.23 nM; with `NCCCCC(NC(=O)c1ccccn1)C(=O)COc1c(F)ccc(F)c1F` (stereo not drawn) [Compound 50a], 0.09 nM; with `NCCCCC(NC(=O)c1ccncc1)C(=O)COc1c(F)ccc(F)c1F` (stereo not drawn) [Compound 52a], 0.06 nM.
On the same count and under the same terms, to `NCCCCC(NC(=O)c1ccc(F)nc1)C(=O)COc1ccon1` (stereo not drawn) [Compound 55a] belongs 0.12 nM.
Same read-out and setting: to `NCCCCC(NC(=O)c1cccnc1F)C(=O)COc1ccon1` (stereo not drawn) [Compound 56a] belongs 0.1 nM.
`COC(C)(C)C(=O)NC(CCCCN)C(=O)COc1ccon1` (stereo not drawn) [Compound 57a]: the IC50 was 0.09 nM.
The same measure, in the same setting: with `CS(C)(=O)=CC(=O)C(CCCCN)NC(=O)C1CCCC1` (stereo not drawn) [Compound 58a] the figure was 4.66 nM; with `C[N+](C)(C)c1ccc(C(=O)NC(CCCCN)C(=O)COc2ccon2)cn1` (stereo not drawn) [Compound 61a], 0.43 nM.
Regarding `CN(C)c1ccc(C(=O)NC(CCCCN)C(=O)COc2ccon2)cn1` (stereo not drawn) [Compound 62a], the IC50 was determined as 0.14 nM.
On the same count and under the same terms, to `COC(C)(C)C(=O)NC(CCCCN)C(=O)COc1cc(C)nc(C)c1` (stereo not drawn) [Compound 63a] belongs 0.09 nM; to `COC(C)(C)C(=O)NC(CCCCN)C(=O)COc1cccnc1` (stereo not drawn) [Compound 64a], 0.4 nM.
On the same count and under the same terms, to `COC(C)(C)C(=O)NC(CCCCN)C(=O)COc1cnc(C)nc1` (stereo not drawn) [Compound 65a] belongs 0.16 nM; to `COC(C)(C)C(=O)NC(CCCCN)C(=O)COC(C(F)(F)F)C(F)(F)F` (stereo not drawn) [Compound 69a], 0.21 nM.

The data set is the same for the next values; noted with them: Table 5, probe compounds; read-out: Kgp IC50.
For `NCCCC[C@H](NC(=O)C1CCCC1)C(=O)COc1c(F)c(F)cc(F)c1F` (stereo in doubt) [Compound 73, N-[7-amino-2-oxo-1-(2,3,5,6-tetrafluorophenoxy)heptan-3-yl]cyclopentanecarboxamide, reference compound], the IC50 was below 0.05 nM.
The same measure, in the same setting: to `CN(C)c1ccc(/N=N/c2ccc(C(=O)NCc3cc(F)c(OCC(=O)C(CCCCN)NC(=O)c4cccc(N=[N+]=[N-])c4)c(F)c3)cc2)cc1` (stereo not drawn) [Compound 44a] belongs 3 nM.

The same data set, now with this note: as compared to reference compound 73.
For the compound `NCCCC[C@H](NC(=O)C1CCCC1)C(=O)COc1c(F)cccc1F` [Compound 2, (S)—N-(7-amino-1-(2,6-difluorophenoxy)-2-oxoheptan-3-yl)cyclopentanecarboxamide], the “selectivity for Kgp over endogenous cathepsins” value is reported as “increased selectivity”.
The same measure, in the same setting: with `NCCCC[C@H](NC(=O)C1CCCC1)C(=O)COc1cccc(F)c1` [Compound 7, (S)—N-(7-amino-1-(3-fluorophenoxy)-2-oxoheptan-3-yl)cyclopentanecarboxamide] the entry was “increased selectivity”.
As to `NCCCC[C@H](NC(=O)C1CCCC1)C(=O)COC(C(F)(F)F)C(F)(F)F` [Compound 18, (S)—N-(7-amino-1-((1,1,1,3,3,3-hexafluoropropan-2-yl)oxy)-2-oxoheptan-3-yl)cyclopentanecarboxamide], the “selectivity for Kgp over endogenous cathepsins” value is on record as “far more selective”.
Same read-out and setting: with `COC(C)(C)C(=O)N[C@@H](CCCCN)C(=O)COc1c(F)ccc(F)c1F` [Compound 47, (S)—N-(7-amino-2-oxo-1-(2,3,6-trifluorophenoxy)heptan-3-yl)-2-methoxy-2-methylpropanamide] the entry was “far more selective”.
Same read-out and setting: with `NCCCC[C@H](NC(=O)c1ccccn1)C(=O)COc1c(F)ccc(F)c1F` [Compound 50, (S)—N-(7-amino-2-oxo-1-(2,3,6-trifluorophenoxy)heptan-3-yl)picolinamide] the entry was “increased selectivity”; with `NCCCC[C@H](NC(=O)c1ccc(F)nc1)C(=O)COc1ccon1` [Compound 55, (S)—N-(7-amino-1-(isoxazol-3-yloxy)-2-oxoheptan-3-yl)-6-fluoronicotinamide], “far more selective”.

Tested on in the next data set: not listed separately
In words: Oral pharmacokinetics in CD-1 mice. Format: in vivo. To be noted: male CD-1 mice, p.o. 10 mg/kg.
For `COC(C)(C)C(=O)N[C@@H](CCCCN)C(=O)COc1c(F)ccc(F)c1F` [Compound 47, (S)—N-(7-amino-2-oxo-1-(2,3,6-trifluorophenoxy)heptan-3-yl)-2-methoxy-2-methylpropanamide], the “concentrations in the brain and cerebrospinal fluid (CSF)” value is reported as “increased”.
As for `NCCCC[C@H](NC(=O)C1CCCC1)C(=O)COc1ccon1` [Compound 49, (S)—N-(7-amino-1-(isoxazol-3-yloxy)-2-oxoheptan-3-yl)cyclopentanecarboxamide], the “concentrations in the brain and cerebrospinal fluid (CSF)” value was “reduced”.

Staying with this data set, now noted: male CD-1 mice, p.o. 10 mg/kg, as compared to reference compound 73.
Take `COC(C)(C)C(=O)N[C@@H](CCCCN)C(=O)COc1c(F)ccc(F)c1F` [Compound 47, (S)—N-(7-amino-2-oxo-1-(2,3,6-trifluorophenoxy)heptan-3-yl)-2-methoxy-2-methylpropanamide]: the oral availability entry is “improved” and the plasma concentrations result is “increased”.
On the same counts, the results for `COC(C)(C)C(=O)N[C@@H](CCCCN)C(=O)COc1c(F)cccc1F` [Compound 48, (S)—N-(7-amino-1-(2,6-difluorophenoxy)-2-oxoheptan-3-yl)-2-methoxy-2-methylpropanamide] are “improved” and “increased”.

The record behind these values is patent publication US11325884B2, “Ketone inhibitors of lysine gingipain” (CORTEXYME, INC., priority 2016, dated 2022).
